Our source for the IC50 and viability, T/C values is PubChem BioAssay AID2060326 (Molecular Pharmacology Branch, DTP, NCI, 2025).

The experiment has as its system MDA-MB-468 multi-cell spheroids, viability. Briefly: Anticancer human tumor MDA-MB-468 cell line growth inhibition [IpAb].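 As to all read-outs here: spheroids exposed to agents for seven days.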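 As to viability, T/C: 100% = DMSO vehicle control viability.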 Conditions: for viability, T/C: stronger effect = lower value. The procedure, abridged:
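Spheroids of 60% malignant cells, 25% HUVEC and 15% MSC were exposed to targeted agents combined with ipatasertib or abemaciclib. Doses started at or near clinical Cmax (10 microM when unknown) and fell in half-log steps.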

SMILES strings stand for the structures. “And” between values parts separate entries of the source, which are not always exact repeats. Equal values may be shown once. Where only a bound is given, the exact number is not on record here.

Regarding `Cn1ncc(Cl)c1-c1cc(C(=O)NC(CN)Cc2cccc(F)c2)sc1Cl` (configuration not stated) + CC(C)NCC(C(=O)N1CCN(c2ncnc3c2C(C)CC3O)CC1)c1ccc(Cl)cc1, the IC50 runs as follows: (curve of first compound, second compound 0.1 µM) 0.366 µM; (curve of first compound, second compound 0.316 µM) 0.133 µM; (curve of first compound, second compound 1 µM) 0.0522 µM; (curve of first compound, second compound 3.16 µM) less than 0.0316 µM; (curve of first compound, second compound 10 µM) less than 0.0316 µM. Moreover, the viability, T/C (second compound 0.1 µM, first compound 0.0316 µM) is 71.1%; the viability, T/C (second compound 0.1 µM, first compound 0.1 µM) is 64%; the viability, T/C (second compound 0.1 µM, first compound 0.316 µM) was 54.8%; the viability, T/C (second compound 0.1 µM, first compound 1 µM) is 30.3%; the viability, T/C (second compound 0.1 µM, first compound 3.16 µM) was 16.1%; the viability, T/C (second compound 0.1 µM, first compound 10 µM) is 0.14%. The viability, T/C (second compound 0.316 µM, first compound 0.0316 µM) was 57.7%; the viability, T/C (second compound 0.316 µM, first compound 0.1 µM) was 51.5%; the viability, T/C (second compound 0.316 µM, first compound 0.316 µM) was 44%; the viability, T/C (second compound 0.316 µM, first compound 1 µM) is 31.8%; the viability, T/C (second compound 0.316 µM, first compound 3.16 µM) is 16.6%; the viability, T/C (second compound 0.316 µM, first compound 10 µM) is 0.13%. Moreover, the viability, T/C is, setting by setting: (second compound 1 µM, first compound 0.0316 µM) 50.5%; (second compound 1 µM, first compound 0.1 µM) 50.9%; (second compound 1 µM, first compound 0.316 µM) 36.3%; (second compound 1 µM, first compound 1 µM) 28.4%; (second compound 1 µM, first compound 3.16 µM) 12.6%; (second compound 1 µM, first compound 10 µM) 0.12%. The viability, T/C by setting is: (second compound 3.16 µM, first compound 0.0316 µM) 31.8%; (second compound 3.16 µM, first compound 0.1 µM) 36.1%; (second compound 3.16 µM, first compound 0.316 µM) 31.5%; (second compound 3.16 µM, first compound 1 µM) 21.3%; (second compound 3.16 µM, first compound 3.16 µM) 10.8%; (second compound 3.16 µM, first compound 10 µM) 0.37%. For the same molecule, the viability, T/C is 18.8% (second compound 10 µM, first compound 0.0316 µM); 20.4% (second compound 10 µM, first compound 0.1 µM); 17.4% (second compound 10 µM, first compound 0.316 µM); 17.4% (second compound 10 µM, first compound 1 µM); 1.85% (second compound 10 µM, first compound 3.16 µM); 0.18% (second compound 10 µM, first compound 10 µM).

Regarding `CC(C)(C)c1cnc(CSc2cnc(NC(=O)C3CCNCC3)s2)o1`, the viability, T/C by setting is: (compound 0.00949 µM) 90.5% and 95.1%; (compound 0.03 µM) 98.2% and 96.8%; (compound 0.0949 µM) 44.3% and 64.7%; (compound 0.3 µM) 0.55% and 0.39%; (compound 0.949 µM) 0.44% and 0.29%; (compound 3 µM) 0.51% and 0.39%. Under “curve of compound”, the IC50 was 0.0832 µM and 0.123 µM.

What is called IC50 is the concentration that gives 50% inhibition. As a reminder, the viability, T/C is the result in the treated group divided by that in the control group, in per cent.
